In ChEMBL document CHEMBL1128864, “Antitumor activities of -, -monogalactosylceramides and four diastereomers of an -galactosylceramide” (1995):

Key:
Assay type in all cases: functional
Mus musculus [1] = species on record: Mus musculus; test: Evaluated for lymphocyte proliferation stimulatory effect in BALB/c mice and percent control of [3H]TdR incorporation at dose 100 ng/ml using allogenic mixed lymphocyte reaction (MLR)
Mus musculus [2] = test: Evaluated for life span prolonging effects against female BDF1 mice infected intraperitoneally 1x10E6 murine melanoma B16 cells on day 0 at dose of 0.1 mg/kg; conditions: route intraperitoneal
Mus musculus [3] = test: Evaluated for life span prolonging effects against female BDF1 mice infected intraperitoneally 1x10E6 P388 cells on day 0 at intravenous dose 0.1 mg/kg on day 1,5,9
Mus musculus [4] = species on record: Mus musculus; test: Evaluated for lymphocyte proliferation stimulatory effect in BALB/c mice and percent control of [3H]TdR incorporation using allogenic mixed lymphocyte reaction (MLR) at a dose 1 ng/ml
Mus musculus [5] = test: Evaluated for life span prolonging effects against female BDF1 mice infected intraperitoneally 1x10E6 murine melanoma B16 cells on day 0 at dose of 1 mg/kg; conditions: route intraperitoneal
Mus musculus [6] = species on record: Mus musculus; test: Evaluated for lymphocyte proliferation stimulatory effect in BALB/c mice and percent control of [3H]-TdR incorporation using allogenic mixed lymphocyte reaction (MLR) at a dose 10 ng/ml
Mus musculus [7] = test: Percent of tumor growth inhibition ratio (TGIR)of the compound administered intravenously at dose 100 ug/kg(on day 7, 11,15) in subcutaneously infected BDF1 mice on day 22
Mus musculus [8] = test: Percent of tumor growth inhibition ratio (TGIR)of the compound administered intravenously at dose 100 ug/kg(on day 7, 11,15) in subcutaneously infected BDF1 mice on day 18
Mus musculus [9] = test: Percent of tumor growth inhibition ratio (TGIR)of the compound administered intravenously at dose 100 ug/kg(on day 7, 11,15) in subcutaneously infected BDF1 mice on day 14
Mus musculus [10] = test: Percent of tumor growth inhibition ratio (TGIR)of the compound administered intravenously at dose 100 ug/kg(on day 7, 11,15) in subcutaneously infected BDF1 mice on day 11
Mus musculus [11] = test: Percent of tumor growth inhibition ratio (TGIR)of the compound administered intravenously at dose 100 ug/kg(on day 1, 5, 9) in subcutaneously infected BDF1 mice on day 16
Mus musculus [12] = test: Percent of tumor growth inhibition ratio (TGIR)of the compound administered intravenously at dose 100 ug/kg on day 1, 5, 9 in subcutaneously (murine fibrosarcoma Meth A cells) infected in BDF1 mice on day 10
Mus musculus [13] = test: Percent of tumor growth inhibition ratio (TGIR)of the compound administered intravenously at dose 100 ug/kg(on day 1, 5, 9) in subcutaneously infected BDF1 mice on day 20
Mus musculus [14] = test: Percent of tumor growth inhibition ratio (TGIR)of the compound administered intravenously at dose 100 ug/kg on day 1, 5, 9 in subcutaneously (murine fibrosarcoma Meth A cells) infected in BDF1 mice on day 20
Mus musculus [15] = test: Percent of tumor growth inhibition ratio (TGIR)of the compound administered intravenously at dose 100 ug/kg(on day 1, 5, 9) in subcutaneously infected BDF1 mice on day 9
Mus musculus [16] = test: Percent of tumor growth inhibition ratio (TGIR)of the compound administered intravenously at dose 100 ug/kg on day 1, 5, 9 in subcutaneously (murine fibrosarcoma Meth A cells) infected in BDF1 mice on day 16
Mus musculus [17] = test: Percent of tumor growth inhibition ratio (TGIR)of the compound administered intravenously at dose 100 ug/kg on day 1, 5, 9 in subcutaneously (murine fibrosarcoma Meth A cells) infected in BDF1 mice on day 13
Mus musculus [18] = test: Percent of tumor growth inhibition ratio (TGIR)of the compound administered intravenously at dose 100 ug/kg(on day 1, 5, 9) in subcutaneously infected BDF1 mice on day 12

Compound	Control (Mus musculus [1])	Survival (Mus musculus [2])	T/C (Mus musculus [2])	Survival (Mus musculus [3])	T/C (Mus musculus [3])	Control (Mus musculus [4])	Survival (Mus musculus [5])	T/C (Mus musculus [5])	Control (Mus musculus [6])	TGIR (Mus musculus [7])	TGIR (Mus musculus [8])	TGIR (Mus musculus [9])	other results
CCCCCCCCCCCCCCCCCCCCCC[C@@H](O)C(=O)N[C@@H](CO[C@H]1O[C@@H](CO)[C@H](O)[C@H](O)[C@@H]1O)[C@H](O)[C@H](O)CCCCCCCCCCCC(C)C	236%	27.6 days	149%	11.3 days	109%	184%	27 days	146%	220%				
CCCCCCCCCCCCCCCCCCCCCC[C@@H](O)C(=O)N[C@@H](CO[C@H]1O[C@@H](CO)[C@H](O)[C@H](O)[C@@H]1O)[C@H](O)[C@H](O)CCCCCCCCCCCC	350%	26.8 days	145%	11 days	106%	253%	31.5 days	170%	258%				
CCCCCCCCCCCCCCCCCCCCCCC[C@@H](O)C(=O)N[C@@H](CO[C@H]1O[C@@H](CO)[C@H](O)[C@H](O)[C@@H]1O)[C@H](O)[C@H](O)CCCCCCCCCCCC(C)CC (some centres undefined)	319%	28 days	151%	11.2 days	108%	233%	32 days	173%	281%				
CCCCCCCCCCCCCCCCCCCCCC[C@@H](O)C(=O)N[C@@H](CO[C@H]1O[C@@H](CO)[C@H](O)[C@H](O)[C@@H]1O)[C@H](O)[C@H](O)CCCCCCCCCCCC(C)CC (some centres undefined)	255%	28.2 days	152%	11.2 days	108%	179%	34.5 days	187%	209%				
CCCCCCC/C=C/C(C)=C/CC/C=C/[C@@H](O)[C@H](CO[C@H]1O[C@@H](CO)[C@H](O)[C@H](O)[C@@H]1O)NC(=O)[C@H](O)CCCCCCCCCCCCCCCCCCCCCC	169%	21.3 days	115%	11.3 days	109%	142%	23.7 days	127%	134%				
CCCCCCCCCCCCCC(=O)N[C@H](CO[C@H]1O[C@@H](CO)[C@H](O)[C@H](O)[C@@H]1O)[C@@H](O)CCCCCCCCCCCCC										40.1%	42.2%	52.6%	TGIR (Mus musculus [10]): 55.9%
CCCCCCCCCCCCCC(=O)N[C@@H](CO[C@H]1O[C@@H](CO)[C@H](O)[C@H](O)[C@@H]1O)[C@H](O)CCCCCCCCCCCCC										67.9%	66.4%	66.6%	TGIR (Mus musculus [10]): 76.5%
CCCCCCCCCCCCCC(=O)N[C@H](CO[C@H]1O[C@@H](CO)[C@H](O)[C@H](O)[C@@H]1O)[C@H](O)CCCCCCCCCCCCC										5.1%	11%	13%	
CCCCCCCCCCCCCC(=O)N[C@@H](CO[C@H]1O[C@@H](CO)[C@H](O)[C@H](O)[C@@H]1O)[C@@H](O)CCCCCCCCCCCCC										13.1%	8.5%	4.9%	
CCCCCCCCCCCCCCCCCCCCCCCCCC(=O)N[C@@H](CO[C@H]1O[C@@H](CO)[C@H](O)[C@H](O)[C@@H]1O)[C@H](O)[C@H](O)CCCCCCCCCCCCCC										-3.8%	20.3%	17.2%	TGIR (Mus musculus [10]): 16.1%
CCCCCCCCCCCCCCC[C@@H](O)[C@H](CO[C@H]1O[C@@H](CO)[C@H](O)[C@H](O)[C@@H]1O)NC(=O)CCCCCCCCCCCCC (stereo in doubt; form 1)													TGIR (Mus musculus [11]): 35%; TGIR (Mus musculus [12]): 26.9%; TGIR (Mus musculus [13]): 28.3%; TGIR (Mus musculus [14]): 3.9%; TGIR (Mus musculus [15]): 29%; TGIR (Mus musculus [16]): 22.1%; TGIR (Mus musculus [17]): 33.1%; TGIR (Mus musculus [18]): 38%
CCCCCCCCCCCCCCC[C@@H](O)[C@H](CO[C@H]1O[C@@H](CO)[C@H](O)[C@H](O)[C@@H]1O)NC(=O)CCCCCCCCCCCCC (stereo in doubt; form 2)													TGIR (Mus musculus [11]): 1.4%; TGIR (Mus musculus [12]): 45.2%; TGIR (Mus musculus [13]): -7.6%; TGIR (Mus musculus [14]): 7%; TGIR (Mus musculus [15]): -28%; TGIR (Mus musculus [16]): 29.2%; TGIR (Mus musculus [17]): 45%; TGIR (Mus musculus [18]): 2.7%
CCCCCCCCCCCCCCC[C@@H](O)[C@H](CO[C@H]1O[C@@H](CO)[C@H](O)[C@H](O)[C@@H]1O)NC(=O)CCCCCCCCCCCCC (stereo in doubt; form 3)													TGIR (Mus musculus [11]): 26.8%; TGIR (Mus musculus [12]): 45.6%; TGIR (Mus musculus [13]): 4.2%; TGIR (Mus musculus [14]): 21.3%; TGIR (Mus musculus [15]): 35.3%; TGIR (Mus musculus [16]): 28.9%; TGIR (Mus musculus [17]): 41.5%; TGIR (Mus musculus [18]): 45.2%
CCCCCCCCCCCCCCC[C@@H](O)[C@H](CO[C@H]1O[C@@H](CO)[C@H](O)[C@H](O)[C@@H]1O)NC(=O)CCCCCCCCCCCCC (stereo in doubt; form 4)													TGIR (Mus musculus [11]): 64.8%; TGIR (Mus musculus [12]): 69%; TGIR (Mus musculus [13]): 54%; TGIR (Mus musculus [14]): 36.7%; TGIR (Mus musculus [15]): 59.5%; TGIR (Mus musculus [16]): 58.1%; TGIR (Mus musculus [17]): 68.1%; TGIR (Mus musculus [18]): 62%
CCCCCCCCCCCCCCCCCCCCCCCCCC(=O)N[C@@H](CO[C@H]1O[C@H](CO)[C@H](O)[C@H](O)[C@H]1O)[C@H](O)[C@H](O)CCCCCCCCCCCCCC [RGI-7000]										40.2%	51.1%	50.9%	TGIR (Mus musculus [10]): 41.1%
